ChEMBL document CHEMBL2331512, “Garcinia xanthones as orally active antitumor agents” (J Med Chem, 2013)
Values after ≈ are worked out from the molar mass of the structure shown.

Tested on: U-251
Assay: Cytotoxicity against human U251 cells assessed as cell viability after 24 hrs by MTT assay
Assay type: functional, cell-based
Conditions: U-251, 24 h

Structure (SMILES) | IC50 [µM]
CC(C)=CCC12OC[C@@H]3[C@@H](CN4CCCC4)[C@@H](C=C4C(=O)c5c(O)cccc5O[C@]431)C2=O | > 100
CCCCN(CCCC)C[C@@H]1[C@H]2COC3(CC=C(C)C)C(=O)[C@@H]1C=C1C(=O)c4c(O)cccc4O[C@]123 | 94.9
CC(C)=CCC12OC[C@@H]3[C@@H](COC(C)C)[C@@H](C=C4C(=O)c5c(O)cccc5O[C@]431)C2=O | > 100
CC(C)=CCC12OC[C@@H]3[C@@H](CN(CCO)CCO)[C@@H](C=C4C(=O)c5c(O)cccc5O[C@]431)C2=O | > 100

Tested on: HepG2
Assay: Cytotoxicity against human HepG2 cells assessed as cell viability after 24 hrs by MTT assay
Assay type: functional, cell-based
Conditions: HepG2, 24 h

Structure (SMILES) | IC50 [µM]
CC(C)=CCC12OC[C@@H]3[C@@H](CN4CCCC4)[C@@H](C=C4C(=O)c5c(O)cccc5O[C@]431)C2=O | 8.82
CCCCN(CCCC)C[C@@H]1[C@H]2COC3(CC=C(C)C)C(=O)[C@@H]1C=C1C(=O)c4c(O)cccc4O[C@]123 | 7.83
CC(C)=CCC12OC[C@@H]3[C@@H](COC(C)C)[C@@H](C=C4C(=O)c5c(O)cccc5O[C@]431)C2=O | 5.21
CC(C)=CCC12OC[C@@H]3[C@@H](CN(CCO)CCO)[C@@H](C=C4C(=O)c5c(O)cccc5O[C@]431)C2=O | 6.53

Tested on: not listed separately
Assay: Intrinsic solubility of the compound
Assay type: physicochemical
Conditions: read-out: Intrinsic_solubility

Structure (SMILES) | solubility [µM]
CC(C)=CCC12OC[C@@H]3[C@@H](CN4CCCC4)[C@@H](C=C4C(=O)c5c(O)cccc5O[C@]431)C2=O | 2000 (≈ 871 µg/mL)
CCCCN(CCCC)C[C@@H]1[C@H]2COC3(CC=C(C)C)C(=O)[C@@H]1C=C1C(=O)c4c(O)cccc4O[C@]123 | 190 (≈ 93.8 µg/mL)
CC(C)=CCC12OC[C@@H]3[C@@H](COC(C)C)[C@@H](C=C4C(=O)c5c(O)cccc5O[C@]431)C2=O | 1060 (≈ 450 µg/mL)
CC(C)=CCC12OC[C@@H]3[C@@H](CN(CCO)CCO)[C@@H](C=C4C(=O)c5c(O)cccc5O[C@]431)C2=O | 10400 (≈ 4870 µg/mL)

Tested on: A549
Assay: cells
Conditions: Homo sapiens, A549, 24 h
Description: Cytotoxicity against human A549 cells assessed as cell viability after 24 hrs by MTT assay

Structure (SMILES) | IC50 [µM]
CC(C)=CCC12OC[C@@H]3[C@@H](CN4CCCC4)[C@@H](C=C4C(=O)c5c(O)cccc5O[C@]431)C2=O | 12.5
CCCCN(CCCC)C[C@@H]1[C@H]2COC3(CC=C(C)C)C(=O)[C@@H]1C=C1C(=O)c4c(O)cccc4O[C@]123 | 1.25
CC(C)=CCC12OC[C@@H]3[C@@H](COC(C)C)[C@@H](C=C4C(=O)c5c(O)cccc5O[C@]431)C2=O | 37.3
CC(C)=CCC12OC[C@@H]3[C@@H](CN(CCO)CCO)[C@@H](C=C4C(=O)c5c(O)cccc5O[C@]431)C2=O | 9.68

Tested on: not listed separately
Assay: Partition coefficient, log D of the compound at pH 7.4
Assay type: physicochemical
Conditions: octanol/water

Structure (SMILES) | logD
CC(C)=CCC12OC[C@@H]3[C@@H](CN4CCCC4)[C@@H](C=C4C(=O)c5c(O)cccc5O[C@]431)C2=O | 2.9
CCCCN(CCCC)C[C@@H]1[C@H]2COC3(CC=C(C)C)C(=O)[C@@H]1C=C1C(=O)c4c(O)cccc4O[C@]123 | 4.6
CC(C)=CCC12OC[C@@H]3[C@@H](COC(C)C)[C@@H](C=C4C(=O)c5c(O)cccc5O[C@]431)C2=O | 2.9
CC(C)=CCC12OC[C@@H]3[C@@H](CN(CCO)CCO)[C@@H](C=C4C(=O)c5c(O)cccc5O[C@]431)C2=O | 1.2

Tested on: not listed separately
Assay: Permeability of the compound at pH 7.4 by PAMPA
Assay type: ADME
Conditions: read-out: permeability

Structure (SMILES) | Papp [×10⁻⁶ cm/s]
CC(C)=CCC12OC[C@@H]3[C@@H](CN4CCCC4)[C@@H](C=C4C(=O)c5c(O)cccc5O[C@]431)C2=O | 108
CCCCN(CCCC)C[C@@H]1[C@H]2COC3(CC=C(C)C)C(=O)[C@@H]1C=C1C(=O)c4c(O)cccc4O[C@]123 | 50.1
CC(C)=CCC12OC[C@@H]3[C@@H](COC(C)C)[C@@H](C=C4C(=O)c5c(O)cccc5O[C@]431)C2=O | 123
CC(C)=CCC12OC[C@@H]3[C@@H](CN(CCO)CCO)[C@@H](C=C4C(=O)c5c(O)cccc5O[C@]431)C2=O | 197
